Source: US20060110789A1, “Methods to mediate polyketide synthase module effectiveness” (priority 2002, published 2006)

Key:
[1] = molecular target: T1, module 6+TE ((5)M6+TE) (Saccharopolyspora erythraea, UniProt Q03133, DEL53-1503); conditions: NAC thioester substrate, shown earlier; cited from earlier work
T1 construct: The protein was, in each case, a single module of the DEBS PKS fused to the thioesterase (TE) termination region of module 6; first 39 amino acids of module 5 (N-ERL); made in house; host or cells: E. coli (BL21(DE3) with sfp)

[2] = test system: (5)M2+TE, (5)M5+TE, and (5)M6+TE; conditions: Wu et al. 2000; cited from earlier work
[3] = test system: module 5+TE ((5)M5+TE); conditions: NAC thioester substrate at saturating concentration, shown earlier; cited from earlier work
[4] = test system: (5)M3+TE and (3)M3+TE; conditions: either module 3+TE derivative, previously shown; cited from earlier work
[5] = molecular target: T2, module 2+TE ((5)M2+TE) (Saccharopolyspora erythraea, UniProt Q03131+Q03133); conditions: NAC thioester substrate, shown earlier; cited from earlier work
T2 construct: The protein was, in each case, a single module of the DEBS PKS fused to the thioesterase (TE) termination region of module 6; first 39 amino acids of module 5 (N-ERL); made in house; host or cells: E. coli (BL21(DE3) with sfp)

[6] = molecular target: T3, (5)M6+TE (Saccharopolyspora erythraea, UniProt Q03133, DEL53-1503); assay: Substrate transfer and elongation assay, acceptor DEBS module 6; format: biochemical
T3 construct: The protein was, in each case, a single module of the DEBS PKS fused to the thioesterase (TE) termination region of module 6; first 39 amino acids of module 5 (N-ERL); made in house; host or cells: E. coli (BL21(DE3) with sfp)
Method: (§1) Substrate transfer and elongation assays. Qualitative assays were performed with a diketide-ACP or diketide-PCP substrate either taken directly from the so phosphopantetheinlyation reaction or after further purification of the substrate. These assays were performed with 20 μM diketide-ACP/PCP substrate for 2 hours in the following reaction conditions: 1 μM acceptor module, 0.5 mM ^14C-methylmalonyl CoA, 4 mM NADPH in buffer C, 30° C. After quenching by addition of 250 μL EtOAc and vortexing, the products were extracted with 2×250 μL EtOAc, resolved on a silica gel TLC plate, and visualized on a Packard InstantImager.
(§2) The kinetics of substrate transfer at the module 2-module 3 interface followed by elongation and product release were examined as a function of the k60 μM and kcat/KM values of the overall reaction. The k60 μm values reported here represent the apparent overall rate of product formation at an initial substrate concentration of 60 μM. In many cases, the k60μm values approximate the maximal overall turnover rates, as determined by back calculating the KM value for the reactions. True saturation kinetics were not practical because of the technical limitations (e.g., solubility) and limited supply associated with high molecular weight substrates such as diketide-ACP and diketide-PCP. kcat/KM values were determined by competitive assay of the substrate of interest against a substrate with a known kcat/KM value, as previously described (Wu, et al., (2001) J. Am. Chem. Soc. 123, 6465-6474). […]
(§3) These reactions were quenched by the addition of 80 μL 12.5% SDS to 2 μL reaction mixture and immediate vortexing. […] After removing the organic solvents in vacuo, the residual products were then spotted onto a TLC plate (Baker-flex 250 uM silica gel), resolved in 60% EtOAc/40% hexanes, and the radioactive spots were visualized and quantified on a Packard InstantImager. […]

[7] = molecular target: T4, (5)M2+TE (Saccharopolyspora erythraea, UniProt Q03131+Q03133); assay: Substrate transfer and elongation assay, acceptor DEBS module 2; format: biochemical
T4 construct: The protein was, in each case, a single module of the DEBS PKS fused to the thioesterase (TE) termination region of module 6; first 39 amino acids of module 5 (N-ERL); made in house; host or cells: E. coli (BL21(DE3) with sfp)
Method: as §1, §2, §3

[8] = test system: DEBS module 3 ((3)M3+TE or (5)M3+TE); assay: Substrate transfer and elongation assay, acceptor DEBS module 3; format: biochemical; conditions: 20 μM substrate; FIG. 27 A: diketide-ACP2(2)+(3)M3+TE; B: diketide-ACP2(4)+(3)M3+TE; C: diketide-ACP4(4)+(5)M3+TE; D: diketide-ACP4(4)+(3)M3+TE
Method: as §1
as §2, with “The k60 μm values reported here represent the apparent overall rate of product formation at an initial substrate concentration of 60 μM.” left out

[9] = test system: DEBS module 5 ((5)M5+TE or (3)M5+TE); assay: Substrate transfer and elongation assay, acceptor DEBS module 5; format: biochemical
Method: as §1, §2, §3

[10] = versus diketide-ACP4(4), stated jointly for modules 2 and 6

Compound | kcat [1] [s⁻¹] | qualitative turnover of NAC thioesters [2] | kcat (elongation rate constant) [3] [s⁻¹] | qualitative incorporation of NAC thioesters [4] | kcat [5] [s⁻¹] | qualitative transfer of diketide to (5)M6+TE ([6]; 20 μM substrate, 2 hours) | drop of k60 μM when linker interactions are eliminated [6, 10] | drop of kcat/KM when linker interactions are eliminated [6, 10] | qualitative transfer of diketide to (5)M2+TE ([7]; 20 μM substrate, 2 hours) | drop of k60 μM when linker interactions are eliminated [7, 10] | drop of kcat/KM when linker interactions are eliminated [7, 10] | qualitative transfer of diketide to module 3 (triketide lactone formation) [8] | qualitative transfer of diketide to module 5 (triketide lactone formation) ([9]; 20 μM substrate, FIG. 28 A: diketide-ACP4(4)+(5)M5+TE, B: diketide-ACP4(4)+(3)M5+TE, C: diketide-ACP2(4)+(5)M5+TE, D: diketide-ACP2(2)+(5)M5+TE) | k60μm ([9]; acceptor (3)M5+TE, FIG. 29 B) [min⁻¹] | k60μm ([9]; acceptor (5)M5+TE, FIG. 29 A) [min⁻¹]
CCC(O)C(C)C(=O)SCCNC(C)=O (stereo not drawn) [2a] | 0.283 | substrates for the three modules | 0.00417 | readily incorporated and elongated | 0.0767 | – | – | – | – | – | – | – | – | – | –
diketide-ACP4(Ø): diketide on isolated ACP4 domain without linker region | – | – | – | – | – | observed | approximately 10 fold | 70-300 fold | observed | approximately 10 fold | 70-300 fold | not able to efficiently transfer substrates | Formation of the expected triketide lactone was observed | 0.27 | 0.49
